The numbers were not newly measured in US20040220167A1, “Methods of treating neuralgic pain” (priority 2003, published 2004), which cites them from elsewhere.

For the series the following is noted: in vivo.

In the case of Verteporfin, the “fraction cleared via the kidneys” value is reported as “Less than 1%”; the mean half-life was 5 to 6 h; the primary clearance route result is “primarily cleared through bile and feces”.
